Assay results published in patent publication US20250296942A1, “Phosphonate-Based Coordination Complexes and Methods of Preparation and Use Thereof” (University of Puerto Rico, priority 2021, published 2025).

Legend:
[1] = Dissolution of ZOLE and ZOLE-based BPCCs in PBS (UV-Vis 208 nm); assay type: physicochemical
Protocol: Rate measurements were recorded for the reagent grade ZOLE, ZOLE-Ca forms I and II, ZOLE-Mg forms I and II, ZOLE-Zn forms I and II in PBS, against a reagent blank. […] Absorbance measurements were performed on an Agilent Technologies Cary Series UV-Vis Spectrophotometer, Cary 100 UV-Vis model; using the UV Cary Scan software version v.20.0.470. All measurements were performed with a 400-200 nm scan.
Dissolution of ZOLE-based BPCCs was compared to that of ZOLE (active ingredient of Reclast@), to assess the structural stability of these materials in PBS and FaSSGF.
(§4) Dissolution assays employed a maximum concentration of 0.05 mg/mL of ZOLE, which corresponded to the clinically utilized dosage of these BP.

[2] = Dissolution of ZOLE and ZOLE-Ca form II in FaSSGF; assay type: physicochemical
Protocol: For ZOLE and ZOLE-Ca form II, dissolution measurements were performed in fasted-state simulated gastric fluid (FaSSGF). […] Absorbance measurements were performed on an Agilent Technologies Cary Series UV-Vis Spectrophotometer, Cary 100 UV-Vis model; using the UV Cary Scan software version v.20.0.470. All measurements were performed with a 400-200 nm scan.
as §4
To further investigate if the ZOLE-based BPCCs presented pH-dependent degradation, dissolution of ZOLE-Ca Form II in FaSSGF was performed.

[3] = Hydroxyapatite (HA) binding assay of ZOLE and nano-Ca@ZOLE
Protocol: Hydroxyapatite (HA) binding assay: For the binding assay of nano-Ca@ZOLE, 20 mg of hydroxyapatite (HA) were exposed to 3 mL of a nano-Ca@ZOLE in PBS solution (0.5 mg/mL), for 0-11 days at 37° C. As control groups, nano-Ca@ZOLE and HA, both in PBS, were employed. As a comparative method, the binding assay for ZOLE “as received” was performed employing the same parameters as for the nanocrystals. For the experimental groups (HA-nano-Ca@ZOLE and HA-ZOLE), collection was performed in duplicate. Samples were collected each day for 11 consecutive days. After each time point, supernatant was collected and centrifuged (1,500 rpm, 8 min). Absorbance measurements were performed at 208 nm (λmax) to determine the percentage of ZOLE and nano-Ca@ZOLE bound to HA. Solid samples of HA, HA-ZOLE, and HA-nano-Ca@ZOLE were characterized by EDS.
The ability of nano-Ca@ZOLE to bind under simulated physiological conditions to the main constituent of the bone microenvironment, hydroxyapatite (HA), was probed through a binding assay. The binding to HA was determined by monitoring the decrease in the ZOLE concentration of the supernatant using absorption measurements (λmax=208 nm).

[4] = tested on: human breast cancer MDA-MB-231 cell line; assay: AlamarBlue cytotoxicity, ZOLE and nano-Ca@ZOLE, MDA-MB-231; assay type: cell-based; settings: for IC50: Homo sapiens
Protocol: (§1) Cell culture methods: The MDA-MB-231 cell line was cultured in DMEM, 1% Pen-Strep, and 10% FBS at 37° C. in 5% CO2. The hFOB 1.19 cell line was cultured in 1:1 DMEM:F-12, 0.3 mg/mL G418, and 10% FBS at 34° C. in 5% CO2. Cell passages were performed weekly at 80% of cell confluency, and media was exchanged twice a week.
(§2) Cell treatments: Both cell lines were treated with ZOLE (control) and nano-Ca@ZOLE (experimental). First, to determine the half-maximal inhibitory concentration (IC50) two-fold serial dilutions of ZOLE (0-200 μM) were prepared. Both cell lines (MDA-MB-231 and hFOB 1.19) were seeded in 96 well plates at 2.5×10^5 cell/mL. The cells were incubated for 24 h at 37° C. (MDA-MB-231) and 34° C. (hFOB 1.19), respectively. After an initial incubation period, both cell lines were treated with 100 μL of the ZOLE solutions previously prepared, and incubation was performed for 24, 48, and 72 h at the respective incubation temperatures. For both cell lines, media (MDA-MB-231: DMEM, Pen-Strep and hFOB 1.19: DMEM, F-12, G418) were used with control groups. AlamarBlue® assay was utilized to determine cell proliferation; for this, 10% of AlamarBlue® solution in PBS was prepared. Finally, media was removed from the 96 well plates, 100 μL of 10% AlamarBlue® solution was added, and the cells were incubated for 4 h at the conditions previously set forth herein. After the AlamarBlue® assay, fluorescence (λexc=560 nm, m=590 nm) was evaluated employing an Infinite M200 PRO Tecan Microplate Reader. Live cells were assessed comparing viability of the control group (100%) with cells treated with the ZOLE solutions. The nonlinear regression method using Graph Pad Prism 8 was applied to fit the dose-response curves (% cell live vs concentration) and determined the IC50 values for ZOLE.
(§3) The percentage of relative cell live (% RCL) for ZOLE (control) and nano-Ca@ZOLE (experimental) were investigated at selected concentrations (1.9, 3.8, 7.5, and 15 μM) in both cell lines. Treatments at these concentrations were carried out at 24, 48, and 72 h for ZOLE and nano-Ca@ZOLE. The cell seeding and AlamarBlue® assay were completed as described above for IC50 determination in both cell lines. Graph Pad Prism 8 was utilized to plot the % RCL found at concentrations of 1.9, 3.8, 7.5, and 15 μM after 24, 48, and 72 h of treatment. All experiments were performed in triplicates and the data was statistically treated using mean, standard deviation, and the coefficient of variation percentage (% CV).
In this Example, the human breast cancer MDA-MB-231 and the osteoblast-like hFOB 1.19 cell lines were selected to assess cytotoxicity effects of nano-Ca@ZOLE nanocrystals. […] While, the immortalized human fetal hFOB 1.19 cell line is a homogeneous model that allows the study of osteoblast differentiation, these cells were employed to imitate the normal human bone microenvironment. To determine the IC50 values against MDA-MB-231 and hFOB 1.19 cell lines, concentrations of 0-200 μM of ZOLE were employed.

[5] = tested on: normal osteoblast-like hFOB 1.19 cell line; assay: AlamarBlue cytotoxicity, ZOLE and nano-Ca@ZOLE, hFOB 1.19; assay type: cell-based, human; settings: for IC50: Homo sapiens
Protocol: as §1, §2, §3
In this Example, the human breast cancer MDA-MB-231 and the osteoblast-like hFOB 1.19 cell lines were selected to assess cytotoxicity effects of nano-Ca@ZOLE nanocrystals. […]

## O=P(O)(O)C(O)(Cn1ccnc1)P(=O)(O)O [ZOLE, zoledronic acid]
[1]; PBS pH 7.4
  time to reach maximum dissolution: 30 min
[1]; PBS pH 7.4, 37 °C
  dissolution / equilibrium solubility (maximum ZOLE released): 100%
[2]; FaSSGF pH 1.6
  time to reach maximum dissolution: 3 h
[2]; FaSSGF pH 1.6, 37 °C
  dissolution / equilibrium solubility (maximum ZOLE released): 100%
[3]; PBS pH 7.4
  time to reach maximum binding to HA: 8 days
[3]; PBS pH 7.4, 37 °C, 0-11 days
  maximum binding to HA: 82%
[3]; PBS pH 7.4, 37 °C, 1 day (24 h)
  bound to HA: 15%
[4]; 1.9 μM, time not stated
  % RCL (relative cell live): ~100%
[4]; 3.8 μM, time not stated
  % RCL: ~100%
[4]; 15 μM, 48 h
  % RCL: 80±2%
[4]; 15 μM, 72 h
  % RCL: 58±2%
[4]; 24 h
  IC50: > 200 µM
[4]; 48 h
  IC50: > 200 µM
[4]; 72 h
  IC50: 35 µM
[5]; 1.9-15 μM, 24, 48, 72 h
  % RCL / cell death: no significant cell death
[5]; 24 h
  IC50: > 200 µM
[5]; 48 h
  IC50: 86 ± 3 µM
[5]; 72 h
  IC50: 49 ± 4 µM
